Experiment: excess molar enthalpy (molar enthalpy of mixing); xn = mol fraction of the nth substance listed
Details: 298.15 K, 101 kPa, Liquid, Calvet calorimetry

CCCCCCCC[n+]1ccn(C)c1.F[B-](F)(F)F [1-methyl-3-octylimidazolium tetrafluoroborate] + CC(C)O
Details | excess molar enthalpy [kJ/mol]
x1 = 0.139 | 1.41
x1 = 0.142 | 1.43
x1 = 0.144 | 1.46
x1 = 0.148 | 1.48
x1 = 0.151 | 1.51
x1 = 0.154 | 1.53
x1 = 0.158 | 1.56
x1 = 0.162 | 1.59
x1 = 0.165 | 1.61
x1 = 0.17 | 1.64
x1 = 0.173 | 1.66
x1 = 0.176 | 1.68
x1 = 0.179 | 1.7
x1 = 0.183 | 1.72
x1 = 0.186 | 1.74
x1 = 0.19 | 1.77
x1 = 0.194 | 1.79
x1 = 0.198 | 1.81
x1 = 0.202 | 1.84
x1 = 0.207 | 1.86
x1 = 0.212 | 1.89
x1 = 0.216 | 1.92
x1 = 0.221 | 1.95
x1 = 0.227 | 1.99
x1 = 0.232 | 2.03
x1 = 0.238 | 2.06
x1 = 0.244 | 2.1
x1 = 0.251 | 2.14
x1 = 0.258 | 2.21
x1 = 0.265 | 2.26
x1 = 0.273 | 2.31
x1 = 0.281 | 2.36
x1 = 0.29 | 2.42
x1 = 0.295 | 2.46
x1 = 0.301 | 2.5
x1 = 0.307 | 2.53
x1 = 0.314 | 2.57
x1 = 0.32 | 2.61
x1 = 0.327 | 2.65
x1 = 0.335 | 2.68
x1 = 0.342 | 2.72
x1 = 0.35 | 2.75
x1 = 0.359 | 2.78
x1 = 0.367 | 2.81
x1 = 0.377 | 2.83
x1 = 0.386 | 2.85
x1 = 0.396 | 2.86
x1 = 0.407 | 2.86
x1 = 0.418 | 2.86
x1 = 0.43 | 2.85
x1 = 0.443 | 2.85
x1 = 0.456 | 2.83
x1 = 0.471 | 2.81
x1 = 0.486 | 2.79
x1 = 0.502 | 2.76
x1 = 0.519 | 2.72
x1 = 0.538 | 2.67
x1 = 0.558 | 2.62
x1 = 0.566 | 2.59
x1 = 0.575 | 2.56
x1 = 0.584 | 2.53
x1 = 0.593 | 2.49
x1 = 0.602 | 2.46
x1 = 0.612 | 2.42
x1 = 0.622 | 2.37
x1 = 0.632 | 2.33
x1 = 0.643 | 2.28
x1 = 0.654 | 2.23
x1 = 0.666 | 2.18
x1 = 0.678 | 2.12
x1 = 0.69 | 2.06
x1 = 0.703 | 1.99
x1 = 0.716 | 1.92
x1 = 0.73 | 1.84
x1 = 0.744 | 1.76
x1 = 0.759 | 1.68
x1 = 0.775 | 1.58
x1 = 0.791 | 1.48
x1 = 0.808 | 1.38
x1 = 0.825 | 1.26
x1 = 0.844 | 1.14
x1 = 0.863 | 1.01
x1 = 0.883 | 0.87
x1 = 0.904 | 0.717
x1 = 0.927 | 0.559
x1 = 0.95 | 0.382
x1 = 0.974 | 0.201

CCCCCCCC[n+]1ccn(C)c1.F[B-](F)(F)F [1-methyl-3-octylimidazolium tetrafluoroborate] + CCCCCO
Details | excess molar enthalpy [kJ/mol]
x1 = 0.213 | 1.46
x1 = 0.218 | 1.5
x1 = 0.223 | 1.53
x1 = 0.229 | 1.56
x1 = 0.234 | 1.59
x1 = 0.24 | 1.62
x1 = 0.244 | 1.64
x1 = 0.249 | 1.67
x1 = 0.254 | 1.69
x1 = 0.259 | 1.72
x1 = 0.264 | 1.74
x1 = 0.269 | 1.77
x1 = 0.275 | 1.79
x1 = 0.281 | 1.82
x1 = 0.287 | 1.85
x1 = 0.293 | 1.88
x1 = 0.3 | 1.91
x1 = 0.306 | 1.94
x1 = 0.314 | 1.98
x1 = 0.321 | 2.01
x1 = 0.329 | 2.05
x1 = 0.338 | 2.09
x1 = 0.346 | 2.13
x1 = 0.356 | 2.17
x1 = 0.365 | 2.22
x1 = 0.372 | 2.25
x1 = 0.378 | 2.28
x1 = 0.385 | 2.31
x1 = 0.392 | 2.34
x1 = 0.4 | 2.37
x1 = 0.407 | 2.4
x1 = 0.415 | 2.43
x1 = 0.424 | 2.46
x1 = 0.432 | 2.49
x1 = 0.441 | 2.51
x1 = 0.451 | 2.53
x1 = 0.46 | 2.54
x1 = 0.471 | 2.54
x1 = 0.481 | 2.54
x1 = 0.492 | 2.53
x1 = 0.504 | 2.51
x1 = 0.516 | 2.5
x1 = 0.529 | 2.48
x1 = 0.542 | 2.45
x1 = 0.557 | 2.42
x1 = 0.572 | 2.38
x1 = 0.587 | 2.33
x1 = 0.604 | 2.28
x1 = 0.622 | 2.23
x1 = 0.64 | 2.16
x1 = 0.648 | 2.13
x1 = 0.656 | 2.1
x1 = 0.664 | 2.06
x1 = 0.673 | 2.02
x1 = 0.681 | 1.99
x1 = 0.69 | 1.95
x1 = 0.699 | 1.9
x1 = 0.708 | 1.86
x1 = 0.718 | 1.81
x1 = 0.728 | 1.76
x1 = 0.738 | 1.71
x1 = 0.748 | 1.66
x1 = 0.759 | 1.6
x1 = 0.77 | 1.54
x1 = 0.781 | 1.47
x1 = 0.792 | 1.41
x1 = 0.804 | 1.33
x1 = 0.817 | 1.26
x1 = 0.829 | 1.18
x1 = 0.842 | 1.1
x1 = 0.856 | 1.01
x1 = 0.87 | 0.92
x1 = 0.884 | 0.825
x1 = 0.899 | 0.722
x1 = 0.914 | 0.618
x1 = 0.93 | 0.503
x1 = 0.947 | 0.388
x1 = 0.964 | 0.262
x1 = 0.982 | 0.134

Reference: the NIST ThermoML archive (doi:10.1021/je400709f)
